The values below come from patent US8575091B1, “Amylin analogues and pharmaceutical compositions thereof” (Novo Nordisk A/S, priority 2012, dated 2013).

Numbered stars: 1 amine (or outer) side, 2 acyl side, 3 side chain; on linkers, the order of the positions; unused ones are H or OH. Bridge positions count the residues as written; N and C are the ends. Peptide text beside a SMILES is read from it. * marks the point of attachment. C20 diacid = O=C(O)CCCCCCCCCCCCCCCCCCC(=O)*; γGlu = O=C(O)[C@H](CCC(=O)[*:2])N[*:1]

Assay [1] addresses T1, human amylin receptor (Homo sapiens, UniProt O60896+P30988).
T1 construct: expressed in transfected cells
T1 sequence (P30988 25-474): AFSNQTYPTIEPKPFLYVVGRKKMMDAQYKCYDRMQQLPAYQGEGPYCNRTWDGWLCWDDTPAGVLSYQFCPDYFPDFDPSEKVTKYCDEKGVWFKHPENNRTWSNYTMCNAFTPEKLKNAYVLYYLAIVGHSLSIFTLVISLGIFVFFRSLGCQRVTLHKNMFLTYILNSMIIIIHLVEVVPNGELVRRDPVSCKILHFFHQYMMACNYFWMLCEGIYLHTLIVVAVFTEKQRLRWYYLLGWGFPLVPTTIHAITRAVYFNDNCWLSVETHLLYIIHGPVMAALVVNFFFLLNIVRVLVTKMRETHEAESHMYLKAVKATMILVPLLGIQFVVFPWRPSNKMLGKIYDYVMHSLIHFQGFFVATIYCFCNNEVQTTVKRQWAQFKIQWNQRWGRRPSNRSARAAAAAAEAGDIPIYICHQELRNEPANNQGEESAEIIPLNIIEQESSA
T1 sequence (O60896 24-148 partner): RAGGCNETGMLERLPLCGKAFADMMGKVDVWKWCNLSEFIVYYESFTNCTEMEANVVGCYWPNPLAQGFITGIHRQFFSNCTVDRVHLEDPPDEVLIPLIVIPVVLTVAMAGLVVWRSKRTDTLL
In words: Assay (V) binding to the human amylin receptor (SPA, 125I-rat amylin). How it is done:
The binding assay was performed using scintillation proximity assay (SPA) beads (RPNQ0001) from PerkinElmer and cell membranes from the Amylin 3(a)/CRE-luc cells (as described in Assay (II)) were used. Membranes were prepared in the following way; the cells were rinsed with PBS and incubated with Versene for approximately 5 min before harvesting. The cells were flushed with PBS and the cell-suspension was centrifuged for 5 min at 1000 rpm. […] The resulting pellet was resuspended in buffer 2 and protein concentration was measured (BCA protein Assay, Pierce). The homogenate was kept cold during the whole procedure. The membranes were kept at −80° C. until use. The assay was performed in a 384 well Optiplate (PerkinElmer) in a total volume of 40 ul. Membranes were mixed with SPA beads. Final concentration of membranes 35 ng/μL final and SPA beads was 0.05 mg/well. Test-compounds were dissolved in DMSO and further diluted in assay buffer (50 mM Hepes, pH 7.4, 1 mM CaCl2, 5 mM MgCl2, 0.1% OA and 0.02% Tween20). […] Samples were analyzed on TopCounter™ (Packard). The IC50 was calculated using (one site binding competition analysis) GraphPad Prism5 as a measure of receptor affinity.

The target in assay [2] is T2, human amylin receptor (amylin 3(a) receptor: human calcitonin receptor + RAMP-3) (Homo sapiens, UniProt O60896+P30988).
T2 construct: expressed in transfected cells
T2 sequence (P30988 25-474): T1 sequence (P30988 25-474)
T2 sequence (O60896 24-148 partner): T1 sequence (O60896 24-148 partner)
Nature of the assay: Assay (II)a functional assay, human amylin receptor (CRE luciferase, BHK cells). The format is cell-based.
Description: Assay (II)—Functional Assays
Consequently, transcription is activated by promoters containing multiple copies of the cAMP response element (CRE).
The cell line was further transfected with RAMP-3, using standard methods.
After incubation overnight at 37° C. and 5% CO2, the growth medium was replaced by 50 μl/well assay medium (DMEM (without phenol red), Glutamax™, 10% FBS, and 10 mM Hepes, pH 7.4). Further, 50 μl/well of standard or sample in assay buffer were added. After 3 hours incubation at 37° C. and 5% CO2, the assay medium with standard or sample were removed and replaced by 100 μl/well PBS. Further, 100 μl/well LucLite™ was added. The plates were sealed and incubated at room temperature for 30 minutes. Finally, luminescence was measured on a TopCounter (Packard) in SPC (single photon counting) mode.

[3] abbreviates: human binding ratio, included for comparison.
[4] abbreviates: Table 6, human functional selectivity (hCTR EC50 / hAmylin-R EC50).

In the case of `CC[C@H](C)[C@H](NC(=O)[C@H](C)NC(=O)CNC(=O)[C@H](Cc1ccccc1)NC(=O)[C@H](CC(N)=O)NC(=O)[C@@H]1CCCN1C(=O)[C@H](CO)NC(=O)[C@H](CO)NC(=O)[C@H](Cc1c[nH]cn1)NC(=O)[C@H](CCCNC(=N)N)NC(=O)[C@H](CC(C)C)NC(=O)[C@H](Cc1ccccc1)NC(=O)[C@H](CCC(=O)O)NC(=O)[C@H](C)NC(=O)[C@H](CC(C)C)NC(=O)[C@H](CCCNC(=N)N)NC(=O)[C@H](CCC(N)=O)NC(=O)[C@@H](NC(=O)[C@H](C)NC(=O)[C@@H]1CSSC[C@H](NC(=O)[C@H](CCCCN)NC(=O)CC[C@H](NC(=O)CCCCCCCCCCCCCCCCCCC(=O)O)C(=O)O)C(=O)N[C@@H](CC(N)=O)C(=O)N[C@@H]([C@@H](C)O)C(=O)N[C@@H](C)C(=O)N[C@@H]([C@@H](C)O)C(=O)N1)[C@@H](C)O)C(=O)N1CCC[C@H]1C(=O)N[C@@H](CO)C(=O)N[C@@H](CO)C(=O)N[C@H](C(=O)N[C@@H](CC(N)=O)C(=O)N[C@H](C(=O)NCC(=O)N[C@@H](CO)C(=O)N[C@@H](CC(N)=O)C(=O)N[C@H](C(=O)N1CCC[C@H]1C(N)=O)[C@@H](C)O)C(C)C)[C@@H](C)O` [Example 8] ({C20 diacid-γGlu}-KCNTATCATQRLAEFLRHSSPNFGAIPSSTNVGSNTP-NH2; disulfide 2-7), the “Ratio hCT/hAmylin binding” value in assay [1] (setting [3]) is 0.5. Moreover, the “Ratio hCT/hAmylin funct.” value in assay [2] (setting [4]) was 1.1.

As to `CC[C@H](C)[C@H](NC(=O)[C@H](C)NC(=O)CNC(=O)[C@H](Cc1ccccc1)NC(=O)[C@H](CC(N)=O)NC(=O)[C@@H]1CCCN1C(=O)[C@H](CO)NC(=O)[C@H](CO)NC(=O)[C@H](Cc1c[nH]cn1)NC(=O)[C@H](CCCNC(=N)N)NC(=O)[C@H](CC(C)C)NC(=O)[C@H](Cc1ccccc1)NC(=O)[C@H](CC(=O)O)NC(=O)[C@H](C)NC(=O)[C@H](CC(C)C)NC(=O)[C@H](CCCNC(=N)N)NC(=O)[C@H](CCC(N)=O)NC(=O)[C@@H](NC(=O)[C@H](C)NC(=O)[C@@H]1CSSC[C@H](NC(=O)[C@H](CCCCN)NC(=O)CC[C@H](NC(=O)CCCCCCCCCCCCCCCCCCC(=O)O)C(=O)O)C(=O)N[C@@H](CC(N)=O)C(=O)N[C@@H]([C@@H](C)O)C(=O)N[C@@H](C)C(=O)N[C@@H]([C@@H](C)O)C(=O)N1)[C@@H](C)O)C(=O)N1CCC[C@H]1C(=O)N[C@@H](CO)C(=O)N[C@@H](CO)C(=O)N[C@H](C(=O)N[C@@H](CC(N)=O)C(=O)N[C@H](C(=O)NCC(=O)N[C@@H](CO)C(=O)N[C@@H](CC(N)=O)C(=O)N[C@H](C(=O)N1CCC[C@H]1C(N)=O)[C@@H](C)O)C(C)C)[C@@H](C)O` [Example 10] ({C20 diacid-γGlu}-KCNTATCATQRLADFLRHSSPNFGAIPSSTNVGSNTP-NH2; disulfide 2-7), in assay [1] (setting [3]), the “Ratio hCT/hAmylin binding” value is recorded as 1.2. Besides, the “Ratio hCT/hAmylin funct.” value in assay [2] (setting [4]) is reported as 1.0.

`CC[C@H](C)[C@H](NC(=O)[C@H](C)NC(=O)CNC(=O)[C@H](Cc1ccccc1)NC(=O)[C@H](CC(N)=O)NC(=O)[C@@H]1CCCN1C(=O)[C@H](CO)NC(=O)[C@H](CO)NC(=O)[C@H](Cc1c[nH]cn1)NC(=O)[C@H](CCCNC(=N)N)NC(=O)[C@H](CC(C)C)NC(=O)[C@H](Cc1ccccc1)NC(=O)[C@H](CCC(=O)O)NC(=O)[C@H](C)NC(=O)[C@H](CC(C)C)NC(=O)[C@H](CCCNC(=N)N)NC(=O)[C@H](CCC(N)=O)NC(=O)[C@@H](NC(=O)[C@H](C)NC(=O)[C@@H]1CSSC[C@H](NC(=O)[C@H](CCCCN)NC(=O)CC[C@H](NC(=O)CCCCCCCCCCCCCCCCCCC(=O)O)C(=O)O)C(=O)N[C@@H](CC(N)=O)C(=O)N[C@@H]([C@@H](C)O)C(=O)N[C@@H](C)C(=O)N[C@@H]([C@@H](C)O)C(=O)N1)[C@@H](C)O)C(=O)N1CCC[C@H]1C(=O)N[C@@H](CO)C(=O)N[C@@H](CO)C(=O)N[C@H](C(=O)N[C@@H](CC(N)=O)C(=O)N[C@H](C(=O)NCC(=O)N[C@@H](CO)C(=O)N[C@@H](CC(=O)O)C(=O)N[C@H](C(=O)N1CCC[C@H]1C(N)=O)[C@@H](C)O)C(C)C)[C@@H](C)O` [Example 11] ({C20 diacid-γGlu}-KCNTATCATQRLAEFLRHSSPNFGAIPSSTNVGSDTP-NH2; disulfide 2-7): the “Ratio hCT/hAmylin binding” value in assay [1] (setting [3]) is 1.0. Moreover, in assay [2] (setting [4]), the “Ratio hCT/hAmylin funct.” value came to 0.9.

Regarding `CC[C@H](C)[C@H](NC(=O)[C@H](C)NC(=O)CNC(=O)[C@H](Cc1ccccc1)NC(=O)[C@H](CC(N)=O)NC(=O)[C@@H]1CCCN1C(=O)[C@H](CO)NC(=O)[C@H](CO)NC(=O)[C@H](Cc1c[nH]cn1)NC(=O)[C@H](CCCNC(=N)N)NC(=O)[C@H](CC(C)C)NC(=O)[C@H](Cc1ccccc1)NC(=O)[C@H](CCC(=O)O)NC(=O)[C@H](C)NC(=O)[C@H](CC(C)C)NC(=O)[C@H](CCCNC(=N)N)NC(=O)[C@H](CCC(N)=O)NC(=O)[C@@H](NC(=O)[C@H](C)NC(=O)[C@@H]1CSSC[C@H](NC(=O)[C@H](CCCCN)NC(=O)CC[C@H](NC(=O)CC[C@H](NC(=O)CCCCCCCCCCCCCCCCCCC(=O)O)C(=O)O)C(=O)O)C(=O)N[C@@H](CC(N)=O)C(=O)N[C@@H]([C@@H](C)O)C(=O)N[C@@H](C)C(=O)N[C@@H]([C@@H](C)O)C(=O)N1)[C@@H](C)O)C(=O)N1CCC[C@H]1C(=O)N[C@@H](CO)C(=O)N[C@@H](CO)C(=O)N[C@H](C(=O)N[C@@H](CC(N)=O)C(=O)N[C@H](C(=O)NCC(=O)N[C@@H](CO)C(=O)N[C@@H](CC(N)=O)C(=O)N[C@H](C(=O)N[C@@H](Cc1ccc(O)cc1)C(N)=O)[C@@H](C)O)C(C)C)[C@@H](C)O` [Example 15] ({C20 diacid-γGlu-γGlu}-KCNTATCATQRLAEFLRHSSPNFGAIPSSTNVGSNTY-NH2; disulfide 2-7), the “Ratio hCT/hAmylin binding” value in assay [1] (Table 7b, human calcitonin receptor binding IC50 divided by human amylin receptor binding IC50) came to 26.0; in assay [1] (Table 7c, human calcitonin receptor binding IC50 divided by human amylin receptor binding IC50), 26.0; in assay [1] (setting [3]), 26.0. The “Ratio hCT/hAmylin funct.” value worked out at 8.9 in assay [2] (setting [4]); 8.9 in assay [2] (Table 6a, human functional selectivity (hCTR EC50 / hAmylin-R EC50), at least 5); 8.9 in assay [2] (Table 6i, hCTR funct. EC50 / hAmylin-R funct. EC50); 8.9 in assay [2] (Table 6j, hCTR funct. EC50 / hAmylin-R funct. EC50); 8.9 in assay [2] (Table 6k, hCTR funct. EC50 / hAmylin-R funct. EC50).

Regarding `CC[C@H](C)[C@H](NC(=O)[C@H](C)NC(=O)CNC(=O)[C@H](Cc1ccccc1)NC(=O)[C@H](CC(N)=O)NC(=O)[C@@H]1CCCN1C(=O)[C@H](CO)NC(=O)[C@H](CO)NC(=O)[C@H](Cc1c[nH]cn1)NC(=O)[C@H](CCCNC(=N)N)NC(=O)[C@H](CC(C)C)NC(=O)[C@H](Cc1ccccc1)NC(=O)[C@H](CCC(=O)O)NC(=O)[C@H](C)NC(=O)[C@H](CC(C)C)NC(=O)[C@H](CCCNC(=N)N)NC(=O)[C@H](CCC(N)=O)NC(=O)[C@@H](NC(=O)[C@H](C)NC(=O)[C@@H]1CSSC[C@H](NC(=O)[C@H](CCCCN)NC(=O)CC[C@H](NC(=O)CCCCCCCCCCCCCCCCCCC(=O)O)C(=O)O)C(=O)N[C@@H](CC(N)=O)C(=O)N[C@@H]([C@@H](C)O)C(=O)N[C@@H](C)C(=O)N[C@@H]([C@@H](C)O)C(=O)N1)[C@@H](C)O)C(=O)N1CCC[C@H]1C(=O)N[C@@H](CO)C(=O)N[C@@H](CO)C(=O)N[C@H](C(=O)N[C@@H](CC(N)=O)C(=O)N[C@H](C(=O)NCC(=O)N[C@@H](CO)C(=O)N[C@@H](Cc1c[nH]cn1)C(=O)N[C@H](C(=O)N[C@@H](Cc1ccc(O)cc1)C(N)=O)[C@@H](C)O)C(C)C)[C@@H](C)O` [Example 18] ({C20 diacid-γGlu}-KCNTATCATQRLAEFLRHSSPNFGAIPSSTNVGSHTY-NH2; disulfide 2-7), the “Ratio hCT/hAmylin binding” value in assay [1] (setting [3]) came to 9.2. Besides, in assay [2] (setting [4]), the “Ratio hCT/hAmylin funct.” value was 4.8.
